pIC50: −log10 of the molar value.
System: AKT protein phosphorylated on serine 473 (P-AKT-S473) in PC3 human prostate carcinoma cells
Assay: pAKT expression in PC3 cells measured by MSD Multi-spot Biomarker Detection (Test B)
Type: cell-based
Settings: PC-3, inhibition of AKT Ser473 phosphorylation, 1 to 2 h incubation, MSD sandwich immunoassay, absolute IC50, mean of two experiments
Method: The inhibitory activity of the molecules on AKT phosphorylation is measured either by western blotting using the technique described below, or by the MSD Multi-spot Biomarker detection technique from Meso Scale Discovery also described below.
Where appropriate, the activity of the products is translated into approximately IC50, obtained from a dose-response curve of various concentrations tested and representing the dose giving 50% of specific inhibition (absolute IC50). Two independent experiments make it possible to calculate the mean of the IC50s. Study of pAKT expression in PC3 human prostate carcinoma cells measured by the MSD Multi-spot Biomarker Detection technique from Meso Scale Discovery (Test B): This test is based on measuring the expression of the AKT protein phosphorylated on serine 473 (P-AKT-S473), in the PC3 human prostate carcinoma line, by means of the technique based on a sandwich immunoassay using the MSD Multi-spot Biomarker Detection kit from Meso Scale Discovery: phospho-Akt (Ser473) whole cell lysate kit (#K151 CAD) or phospho-Akt (Ser473)/Total Akt whole cell lysate kit (#K151OOD).
The primary antibody specific for P-AKT-5473 (Kit #K151 CAD) is coated onto an electrode in each well of the 96-well plates of the MSD kit: after the addition of a protein lysate to each well, the signal is visualised by adding a secondary detection antibody labelled with an electrochemoluminescent compound. The procedure followed is that described in the kit.
On day 1, the PC3 cells are seeded into 96-well plates (TPP, #92096) at the concentration of 35 000 cells/well in 200 μl of DMEM medium (DMEM Gibco #11960-044) containing 10% of foetal calf serum (FCS Gibco, #10500-056) and 1% glutamine (L-Glu Gibco #25030-024), and incubated at 37° C., 5% CO2, overnight.
On day 2, the cells are incubated in the presence or absence of the test products for 1 to 2 h at 37° C. in the presence of 5% of CO2. The molecules, diluted in dimethyl sulphoxide (DMSO Sigma #D2650), are added from a 20-times concentrated stock solution, the final percentage of DMSO being 0.1%. The molecules are tested either at a single concentration of less than or equal to 10 μM, or at increasing concentrations in a range that can extend from less than 1 nM to 10 μM.
After this incubation, the cells are lysed for the preparation of the proteins. For this, after the culture medium has been drawn off, […] of complete Tris Lysis Buffer of the MSD kit containing the protease and phosphatase inhibitor solutions are added to the wells and the cells are lysed for 1 h at 4° C. with shaking At this stage, the plates containing the lysates can be frozen at −20° C. or at −80° C.
The wells of the 96-well plates of the MSD kit are saturated for 1 h at ambient temperature with the blocking solution of the MSD kit. Four washes are carried out with 150 μl of Tris Wash Buffer of the MSD kit. The lysates previously prepared are transferred into the 96-well multi-spot plates of the MSD kit and incubated for 1 h at ambient temperature, with shaking Four washes are carried out with 150 μl of Tris Wash Buffer of the MSD kit. 25 μl of the MSD sulpho-tag detection antibody solution are added to the wells and incubated for 1 h at ambient temperature, with shaking Four washes are carried out with 150 μl of Tris Wash Buffer of the MSD kit. 150 μl of Read Buffer of the MSD kit are added to the wells and the plates are read immediately on the 512400 instrument from Meso Scale Discovery.
The instrument measures a signal for each well. Wells without cells and containing the lysis buffer serve to determine the background noise that will be subtracted from all the measurements (min). The wells containing cells in the absence of product and in the presence of 0.1% DMSO are considered to be the 100% signal (max). The percentage inhibition is calculated for each concentration of test product according to the following formula: (1−((test−min)/(max−min)))×100. […]

Row | Structure (SMILES) | pIC50
1 | COc1ccc2nc(Cc3nc(N4CCOCC4)cc(=O)[nH]3)[nH]c2c1 [Example 4, 2-[(6-methoxy-1H-benzimidazol-2-yl)methyl]-6-(morpholin-4-yl)pyrimidin-4(3H)-one] | 6.32
2 | Cc1ccc2nc(Cc3nc(N4CCOCC4)cc(=O)[nH]3)oc2c1 [Example 8, 2-[(6-methyl-1,3-benzoxazol-2-yl)methyl]-6-(morpholin-4-yl)pyrimidin-4(3H)one] | 6.84
3 | O=c1cc(N2CCOCC2)nc(Cc2nc3ccc(Br)cc3o2)[nH]1 [Example 9, 2-[(6-bromo-1,3-benzoxazol-2-yl)methyl]-6-(morpholin-4-yl)pyrimidin-4(3H)-one] | 6.76
4 | Cn1c(Cc2nc(N3CCOCC3)cc(=O)[nH]2)nc2cc(F)ccc21 [Example 11, 2-[(5-fluoro-1-methyl-1H-benzimidazol-2-yl)methyl]-6-(morpholin-4-yl)pyrimidin-4(3H)-one] | 7.80
5 | O=c1cc(N2CCOCC2)nc(Cc2nc3cccc(F)c3o2)[nH]1 [Example 12, 2-[(7-fluoro-1,3-benzoxazol-2-yl)methyl]-6-(morpholin-4-yl)pyrimidin-4(3H)-one] | 7.06
6 | O=c1cc(N2CCOCC2)nc(Cc2nc3ccccc3n2-c2ccccc2)[nH]1 [Example 13, 6-(morpholin-4-yl)-2-[(1-phenyl-1H-benzimidazol-2-yl)methyl]pyrimidin-4(3H)-one] | 8.10
7 | O=c1cc(N2CCOCC2)nc(Cc2nc3ccccc3n2Cc2ccccc2)[nH]1 [Example 14, 2-[(1-benzyl-1H-benzimidazol-2-yl)methyl]-6-(morpholin-4-yl)pyrimidin-4(3H)-one] | 6.98
8 | CCn1c(Cc2nc(N3CCOCC3)cc(=O)[nH]2)nc2ccccc21 [Example 15, 2-[(1-ethyl-1H-benzimidazol-2-yl)methyl]-6-(morpholin-4-yl)pyrimidin-4(3H)-one] | 7.59
9 | O=c1cc(N2CCOCC2)nc(Cc2nc3cc(F)c(F)cc3o2)[nH]1 [Example 16, 2-[(5,6-difluoro-1,3-benzoxazol-2-yl)methyl]-6-(morpholin-4-yl)pyrimidin-4(3H)-one] | 6.73
10 | O=c1cc(N2CCOCC2)nc(Cc2nc3ccc(Cl)cc3[nH]2)[nH]1 [Example 17, 2-[(6-chloro-1H-benzimidazol-2-yl)methyl]-6-(morpholin-4-yl)pyrimidin-4(3H)-one] | 7.20
11 | COCCn1c(Cc2nc(N3CCOCC3)cc(=O)[nH]2)nc2cc(F)ccc21 [Example 19, 2-{[5-fluoro-1-(2-methoxyethyl)-1H-benzimidazol-2-yl]methyl}-6-(morpholin-4-yl)pyrimidin-4(3H)-one] | 6.96
12 | O=c1cc(N2CCOCC2)nc(Cc2nc3ccc4ccccc4c3o2)[nH]1 [Example 20, 6-(morpholin-4-yl)-2-(naphtho[2,1-d][1,3]oxazol-2-ylmethyl)pyrimidin-4(3H)-one] | 6.00
13 | COc1ccc2nc(Cc3nc(N4CCOCC4)cc(=O)[nH]3)oc2c1 [Example 21, 2-[(6-methoxy-1,3-benzoxazol-2-yl)methyl]-6-(morpholin-4-yl)pyrimidin-4(3H)-one] | 7.74
14 | O=c1cc(N2CCOCC2)nc(Cc2nc3ccc(F)c(F)c3o2)[nH]1 [Example 22, 2-[(6,7-difluoro-1,3-benzoxazol-2-yl)methyl]-6-(morpholin-4-yl)pyrimidin-4(3H)-one] | 7.55
15 | O=c1cc(N2CCOCC2)nc(Cc2nc3cc(Cl)c(Cl)cc3[nH]2)[nH]1 [Example 23, 2-[(5,6-dichloro-1H-benzimidazol-2-yl)methyl]-6-(morpholin-4-yl)pyrimidin-4(3H)-one] | 6.71
16 | Cc1ccc2nc(Cc3nc(N4CCOCC4)cc(=O)[nH]3)[nH]c2c1 [Example 24, 2-[(6-methyl-1H-benzimidazol-2-yl)methyl]-6-(morpholin-4 yl)pyrimidin-4(3H)-one] | 6.85
17 | O=c1cc(N2CCOCC2)nc(Cc2nc3c(Cl)cc(C(F)(F)F)cc3[nH]2)[nH]1 [Example 25, 2-{[4-chloro-6-(trifluoromethyl)-1H-benzimidazol-2-yl]methyl}-6-(morpholin-4-yl)pyrimidin-4(3H)-one] | 5.52
18 | O=c1cc(N2CCOCC2)nc(Cc2nc3ccc(C(F)(F)F)cc3[nH]2)[nH]1 [Example 26, 6-(morpholin-4-yl)-2-{[6-(trifluoromethyl)-1H-benzimidazol-2-yl]methyl}pyrimidine-4(3H)-one] | 6.02
19 | O=c1cc(N2CCOCC2)nc(Cc2nc3cc(F)c(Cl)cc3[nH]2)[nH]1 [Example 27, 2-[(5-chloro-6-fluoro-1H-benzimidazol-2-yl)methyl]-6-(morpholin-4-yl)pyrimidin-4(3H)-one] | 6.59
20 | O=c1cc(N2CCOCC2)nc(Cc2nc3c(F)c(F)ccc3[nH]2)[nH]1 [Example 28, 2-[(6,7-difluoro-1H-benzimidazol-2-yl)methyl]-6-(morpholin-4-yl)pyrimidine-4(3H)-one] | 6.23
21 | Cc1cc2nc(Cc3nc(N4CCOCC4)cc(=O)[nH]3)[nH]c2cc1Cl [Example 29, 2-[(5-chloro-6-methyl-1H-benzimidazol-2-yl)methyl]-6-(morpholin-4-yl)pyrimidin-4(3H)-one] | 6.30
22 | N#CCn1c(Cc2nc(N3CCOCC3)cc(=O)[nH]2)nc2ccccc21 [Example 30, (2-{[4-(morpholin-4-yl)-6-oxo-1,6-dihydropyrimidin-2-yl]methyl}-1H-benzimidazol-1-yl)acetonitrile] | 5.87
23 | O=c1cc(N2CCOCC2)nc(Cc2nc3cc(F)cc(F)c3[nH]2)[nH]1 [Example 31, 2-[(5,7-difluoro-1H-benzimidazol-2-yl)methyl]-6-(morpholin-4-yl)pyrimidine-4(3H)-one] | 6.84
24 | CC(c1ccccc1)n1c(Cc2nc(N3CCOCC3)cc(=O)[nH]2)nc2cc(Cl)ccc21 (stereo not drawn) [Example 32, 2-{[5-chloro-1-(1-phenylethyl)-1H-benzimidazol-2-yl]methyl}-6-(morpholin-4-yl)pyrimidine-4(3H)-one] | 6.69
25 | O=c1cc(N2CCOCC2)nc(Cc2nc3ccccc3n2C2CCCCC2)[nH]1 [Example 33, 2-[(1-cyclohexyl-1H-benzimidazol-2-yl)methyl]-6-(morpholin-4-yl)pyrimidin-4(3H)-one] | 6.85
26 | O=c1cc(N2CCOCC2)nc(Cc2nc3cc(F)c(F)c(F)c3[nH]2)[nH]1 [Example 34, 6-(morphlolin-4-yl)-2-[(5,6,7-trifluoro-1H-benzimidazol-2-yl)methyl]pyrimidin-4(3H)-one] | 6.68
27 | O=c1cc(N2CCOCC2)nc(Cc2nc3c(Br)cc(F)cc3[nH]2)[nH]1 [Example 35, 2-[(4-bromo-6-fluoro-1H-benzimidazol-2-yl)methyl]-6-(morpholin-4-yl)pyrimidin-4(3H)-one] | 6.94
28 | Cn1c(Cc2nc(N3CCOCC3)cc(=O)[nH]2)nc2ccc(Br)cc21 [Example 36, 2-[(6-Bromo-1-methyl-1H-benzimidazol-2-yl)methyl]-6-(morpholin-4-yl)pyrimidin-4(3H)-one] | 7.55
29 | Cn1c(Cc2nc(N3CCOCC3)cc(=O)[nH]2)nc2ccc(F)c(F)c21 [Example 37, 2-[(6,7-Difluoro-1-methyl-1H-benzimidazol-2-yl)methyl]-6-(morpholin-4-yl)pyrimidin-4(3H)-one] | 7.82
30 | Cn1c(Cc2nc(N3CCOCC3)cc(=O)[nH]2)nc2cc(Cl)c(Cl)cc21 [Example 38, 2-[(5,6-Dichloro-1-methyl-1H-benzimidazol-2-yl)methyl]-6-(morpholin-4-yl)pyrimidin-4(3H)-one] | 7.19
